In PubChem BioAssay AID1699 (The Scripps Research Institute Molecular Screening Center, 2009) one finds IC50 data, which are given here for four compounds.

For the assay, the system named is parental Ba/F3 viability, CellTiter-Glo ATP luminescence. Briefly: parental Ba/F3 viability inhibition, dose response, counter-screen for JAK2V617F inhibitor project, cell-based, luminescence (AID 1699). (The purpose of a counterscreen is to sort out artefacts and off-target activity.)
As to `Cc1nc([N+](=O)[O-])c(Br)n1CC(=O)c1ccc2ccccc2c1`, the IC50 was 3.68 µM.
Take `N#C/C(=C\c1ccc(O)c(O)c1)C(=O)NCCCc1ccccc1`: the IC50 is 6.01 µM.
For `Clc1ccc(-n2nnnc2Sc2ncnc3sccc23)cc1`, the IC50 was 2.91 µM.
As to `COc1cccc(/C=N/NC(=O)c2[nH]c(C)c(C(=O)N/N=C/c3cccc(OC)c3O)c2C)c1O`, the IC50 was 6.66 µM.

As a reminder, the IC50 is the concentration that inhibits the measured activity by half.
